Results reported in article PMC6028122, “Thermostabilization and purification of the human dopamine transporter (hDAT) in an inhibitor and allosteric ligand bound conformation” (PLoS ONE, 2018).

Target: T1, human dopamine transporter (hDAT) (Homo sapiens, UniProt Q01959, I248Y)
T1 construct: gene SLC6A3; hDAT-I248Y expressed in HEK293S cells
Assay type: cell-based

T1 sequence (Q01959 whole entry I248Y): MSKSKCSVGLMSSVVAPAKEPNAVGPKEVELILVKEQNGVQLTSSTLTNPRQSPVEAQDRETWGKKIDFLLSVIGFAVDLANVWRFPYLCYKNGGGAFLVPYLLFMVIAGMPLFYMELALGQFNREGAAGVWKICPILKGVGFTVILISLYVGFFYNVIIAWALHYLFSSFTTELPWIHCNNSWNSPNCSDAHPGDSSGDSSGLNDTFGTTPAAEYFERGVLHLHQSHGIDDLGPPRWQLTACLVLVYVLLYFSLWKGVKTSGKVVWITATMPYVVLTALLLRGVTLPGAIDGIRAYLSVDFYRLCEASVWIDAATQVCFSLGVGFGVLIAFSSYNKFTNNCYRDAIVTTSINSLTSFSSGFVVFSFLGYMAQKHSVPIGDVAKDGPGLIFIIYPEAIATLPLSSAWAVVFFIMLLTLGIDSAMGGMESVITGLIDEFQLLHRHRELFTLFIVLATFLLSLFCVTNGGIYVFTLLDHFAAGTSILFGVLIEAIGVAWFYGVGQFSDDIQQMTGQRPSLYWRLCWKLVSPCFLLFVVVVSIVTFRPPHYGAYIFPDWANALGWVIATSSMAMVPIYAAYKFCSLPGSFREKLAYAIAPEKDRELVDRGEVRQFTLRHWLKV

SMILES: NCCc1ccc(O)c(O)c1 [dopamine]
- [3H]dopamine uptake in cells: the I248Y mutant was also able to transport dopamine (S2 Fig)
